From publication PMC6286348, “Inhibitor binding mode and allosteric regulation of Na^+-glucose symporters” (Nature Communications, 2018)

Columns and labels:
[1] = biological target: T1, hSGLT1 wild-type (Homo sapiens, UniProt P13866); assay: SGLT current measurement (two electrode voltage clamp) in oocytes, hSGLT1 wild-type; type: cell-based; details: apparent affinity from αMDG current vs external Na^+, 10 mM αMDG, 22 °C
T1 construct: expressed in transfected cells; host or cells: Xenopus laevis oocytes injected with cRNA
T1 sequence (P13866 1-664): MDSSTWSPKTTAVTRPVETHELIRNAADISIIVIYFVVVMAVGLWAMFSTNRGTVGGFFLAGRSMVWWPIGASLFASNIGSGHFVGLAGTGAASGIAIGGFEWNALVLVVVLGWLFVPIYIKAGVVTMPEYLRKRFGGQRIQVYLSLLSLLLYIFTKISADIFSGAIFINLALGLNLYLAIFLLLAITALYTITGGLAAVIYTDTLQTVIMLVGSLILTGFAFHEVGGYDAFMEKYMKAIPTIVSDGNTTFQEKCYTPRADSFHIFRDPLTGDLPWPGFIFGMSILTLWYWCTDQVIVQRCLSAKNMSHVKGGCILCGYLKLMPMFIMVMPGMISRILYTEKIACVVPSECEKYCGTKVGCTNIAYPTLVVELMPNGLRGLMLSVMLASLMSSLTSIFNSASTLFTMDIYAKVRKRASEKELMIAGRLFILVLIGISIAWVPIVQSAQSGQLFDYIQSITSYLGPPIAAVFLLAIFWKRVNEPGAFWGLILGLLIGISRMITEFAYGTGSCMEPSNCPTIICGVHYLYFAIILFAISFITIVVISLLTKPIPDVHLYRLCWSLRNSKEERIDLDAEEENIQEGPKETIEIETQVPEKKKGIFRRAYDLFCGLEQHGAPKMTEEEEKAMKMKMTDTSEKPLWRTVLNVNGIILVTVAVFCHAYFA
Procedure: (§1) Xenopus laevis (Nasco) oocytes (V–VI) were prepared as previously described[20] and injected with 50 nl of cRNA (1 μg/μl). […] Briefly, oocytes were incubated for 30 min in the presence of 50 μM αMDG (5 μM [^14C]αMDG) in a buffer containing (in mM) 100 NaCl, 2 KCl, 1 MgCl2, 1 CaCl2, and 10 N-(2-hydroxyethyl)piperazine-N′-(2-ethanesulfonic acid) (HEPES)/Tris (pH 7.5). After incubation, oocytes were rinsed thoroughly with ice-cold buffer containing (mM) 100 choline Cl^–, 2 KCl, 1 MgCl2, 1 CaCl2, and 10 HEPES/Tris (pH 7.5), individually lysed with 5% sodium dodecyl sulfate, and assayed for radioactivity.
Injected oocytes were incubated at 18 °C, and after 3–4 days, two electrode voltage clamp experiments were performed as previously described. Briefly, SGLT inward glucose currents were measured as a function of the external Na^+ (0–100 mM NaCl), sugar (0–100 mM αMDG), and inhibitors (0.001–100 μM). Steady-state and hSGLT1 capacitive currents were recorded using voltage steps from a holding voltage, Vh of −60 mV, to voltages in the range of −180 to +50 mV in 20 mV increments. The apparent affinity of αMDG, K0.5, was estimated from plots of the inward current as a function of the external αMDG concentration. […] The Na^+-to-αMDG stoichiometry was determined from the reversal potential measurements using the Gibbs free energy as previously described. […]

[2] = tested on: hSGLT1 Y290C; design: method as in PMID 22159082; details: oocytes, 22 °C; cited from earlier work
[3] = biological target: T2, hSGLT2 wild-type (Homo sapiens, UniProt P31639); assay: SGLT current measurement in oocytes, hSGLT2 wild-type (MAP17 co-injected); type: cell-based; design: expressed in transfected cells; host or cells: Xenopus laevis oocytes injected with hSGLT2 cRNA and MAP17 cRNA; details: 22 °C
T2 sequence (P31639 1-672): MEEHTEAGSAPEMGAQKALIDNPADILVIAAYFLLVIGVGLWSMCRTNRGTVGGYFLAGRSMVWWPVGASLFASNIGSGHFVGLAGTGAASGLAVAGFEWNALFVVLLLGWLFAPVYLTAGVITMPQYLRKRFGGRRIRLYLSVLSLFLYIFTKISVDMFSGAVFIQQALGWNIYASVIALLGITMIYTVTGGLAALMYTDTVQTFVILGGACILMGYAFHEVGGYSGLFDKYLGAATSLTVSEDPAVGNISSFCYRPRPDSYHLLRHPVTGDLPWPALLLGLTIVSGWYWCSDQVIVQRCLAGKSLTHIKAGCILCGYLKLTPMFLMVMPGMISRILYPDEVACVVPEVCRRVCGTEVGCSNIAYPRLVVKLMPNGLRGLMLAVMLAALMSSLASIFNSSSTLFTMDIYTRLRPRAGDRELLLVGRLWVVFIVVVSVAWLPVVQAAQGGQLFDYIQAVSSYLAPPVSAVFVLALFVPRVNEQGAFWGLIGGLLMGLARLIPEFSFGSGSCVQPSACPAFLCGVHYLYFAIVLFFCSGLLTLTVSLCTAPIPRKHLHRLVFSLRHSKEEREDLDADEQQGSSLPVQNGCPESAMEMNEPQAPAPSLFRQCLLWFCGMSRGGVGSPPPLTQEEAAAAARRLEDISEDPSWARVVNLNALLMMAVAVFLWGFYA
T2 sequence (Q13113 1-114 partner): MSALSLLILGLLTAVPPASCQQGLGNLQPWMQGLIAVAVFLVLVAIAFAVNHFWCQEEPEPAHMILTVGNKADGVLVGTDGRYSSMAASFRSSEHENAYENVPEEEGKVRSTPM
Procedure: as §1
Injected oocytes were incubated at 18 °C, and after 3–4 days, two electrode voltage clamp experiments were performed as previously described. Briefly, SGLT inward glucose currents were measured as a function of the external Na^+ (0–100 mM NaCl), sugar (0–100 mM αMDG), and inhibitors (0.001–100 μM). Steady-state and hSGLT1 capacitive currents were recorded using voltage steps from a holding voltage, Vh of −60 mV, to voltages in the range of −180 to +50 mV in 20 mV increments. The apparent affinity of αMDG, K0.5, was estimated from plots of the inward current as a function of the external αMDG concentration. Under our experimental conditions, K0.5 is a close approximation of the αMDG binding constant to the Na^+-bound outward conformation of SGLT. The apparent affinity for Na^+, K0.5, was estimated from plots of the αMDG inward current as a function of external Na^+ concentration. For hSGLT1 the interpretation of K0.5 is more complex owing to the presence of two Na^+ binding sites. In this case, the K0.5 is a lumped coefficient for Na^+ binding to the two sites in the outward-facing hSGLT1 conformation. […] The Na^+-to-αMDG stoichiometry was determined from the reversal potential measurements using the Gibbs free energy as previously described. The stoichiometry determinations were reinforced by estimates of αMDG and Na^+ Hill coefficients, and in some cases, by measurement of ^22Na and [^14C]αMDG uptakes under voltage clamp, [21].

In the case of [Na+] [Na^+], the “K0.5 Na^+” value [1] is given as 36 ± 1 mM, the “K0.5 Na^+” value [2] is given as 46 ± 5[20] mM and the “K0.5 Na^+” value [3] is given as 22 ± 1 mM.
